From patent publication US20200102353A1, “HUMAN ENDOGENOUS RETROVIRAL PROTEIN” (priority 2017, published 2020)

Legend:
[1] = tested on: HEMO release in the supernatant; assay: Inhibition of HEMO release (shedding) in supernatant of phCMV-HEMO transfected 293T cells, Western blot; assay type: cell-based, human; details: 293T cells transfected with phCMV-HEMO, treated 3 days, BATIMASTAT 0.1 to 10 μM, MARIMASTAT 0.1 to 10 μM, GM6001 1 to 50 μM
Procedure: For treatment with metalloprotease inhibitors, 5×10^5 293T cells were seeded in 6-well dishes with 2 mL/well of culture medium. One day after seeding, cells were transiently transfected using 1.5 μg phCMV-HEMO plasmid and 4.5 μL Lipofectamine LTX (THERMOFISHER) per well. One day post-transfection, cells were incubated with culture medium supplemented with the indicated concentrations of metalloprotease inhibitors (CALBIOCHEM): BATIMASTAT (0.1 to 10 μM), MARIMASTAT (0.1 to 10 μM) or GM6001 (1 to 50 μM). Medium with inhibitors was replenished for 2 other days, and supernatants were collected and filtered through 0.45 μm MILLIPORE filters one day later. Cells were harvested the same day for protein analysis.
Samples, cell supernatants or cell lysates were analyzed by SDS/PAGE on gradient precast gels (NuPAGE NOVEX 4-12% Bis-Tris gels, LIFE TECHNOLOGIES), and transfer onto nitrocellulose membranes using a semi-dry transfer system. […] Proteins were detected by using an enhanced chemiluminescence system (ECL, PIERCE).

HEMO gene = assay: Effect of DNA demethylation on HEMO gene expression, RT-qPCR; assay type: cell-based, human; details: for dose at which HEMO transcripts were detectable by qRT-PCR: 3-day treatment, doses 0.1 to 5 μM
Procedure: For treatment with 5-Aza-2′-deoxycytidine (5-Aza-dC; SIGMA-ALDRICH), 2×10^5 BeWo and 293T cells were plated in 6-well dishes. Doses ranging from 0.1 to 5 μM of 5-Aza-dC were then added to the culture for 3 days, with fresh medium each day. Cells were harvested for RNA extraction one day later.
Total RNAs from human tissues and cells were either purchased from ZYAGEN (San Diego), or isolated using the RNAeasy Isolation Kit (QIAGEN) according to the manufacturer's instructions, and treated with Dnase I (AMBION). Reverse transcription was performed with 1 μg of RNA using the MLV reverse-transcriptase (APPLIED BIOSYSTEMS). Real-time quantitative PCR was carried out with 5 μl of diluted (1:20) cDNA in a final volume of 25 μl by using SYBR green PCR master mix (QIAGEN). qPCR was carried out with an ABI Prism 7000 sequence detection system, using primers listed in Table 4 above. Transcript levels were normalized relative to the amount of a housekeeping gene (RPLPO or G6PD) mRNA. Samples were assayed in duplicate.

Row | SMILES | HEMO release in the supernatant [1] | dose at which HEMO transcripts were detectable by qRT-PCR (HEMO gene; 293T cells) | dose at which HEMO transcripts were detectable by qRT-PCR (HEMO gene; BeWo cells) | HEMO gene transcript level after treatment (HEMO gene; CaCo-2 cells (HEMO-expressing), similar 5-Aza-dC treatment)
1 | CNC(=O)[C@H](Cc1c[nH]c2ccccc12)NC(=O)[C@@H](CC(=O)NO)CC(C)C [GM6001] | clearly inhibited HEMO release in the supernatant | – | – | –
2 | Nc1ncn([C@H]2C[C@H](O)[C@@H](CO)O2)c(=O)n1 [5-Aza-dC, 5-Aza-2′-deoxycytidine] | – | 5 µM | 0.1 µM | not further amplified
3 | CNC(=O)[C@@H](NC(=O)[C@H](CC(C)C)[C@H](O)C(=O)NO)C(C)(C)C [MARIMASTAT] | clearly inhibited HEMO release in the supernatant | – | – | –
